The values that follow come from patent publication US20090186761A1, “Use of bio-derived surfactants for mitigating damage to plants from pests” (Cleareso, LLC, priority 2008, published 2009).

Series [1] is described as follows: Solubility of the test preparations in water (observations). Type of series: physicochemical.
For series [2], the system named is root weevil, Diaprepes abbreviatus. As to the kind of experiment: Root weevil larvae held 30 minutes in concentration series of compounds. It counts as in vivo. The settings on record: for Mortality of larvae: 30 minutes immersion, five larvae; for toxicity to larvae as judged: 0.1 to 5.0%, judged at 24 hours from black residue and activity. How it is done:
The criterion for toxicity with these larvae is the lack of nipping behavior and its consequent black residue from blood loss and the lack of spontaneous movement.
Concentration Series. With the results from the time series above, larvae were held in different concentrations of STMB for 30 minutes. After 30 minutes, solutions were poured off and the trays wiped dry. Assessments were made at 24 or 48 hours with a few assessments at 72 hours dependent on effects. Treatments were: water or carbonated water as controls, and 0.1, 0.5, 1.0, 2.0, 3.0, 4.0 and 5.0% concentrations in either distilled water or carbonated water. Five larvae were used for each control and treatment. Pupae were not used in this assessment.
The use of carbonated water appeared not to increase the efficacy of this treatment. After 48 hours, there appeared to be no difference between 5% STMB in water and 5% STMB in carbonated water. […] In general, 48 hours should be enough for this assessment. Lack of toxicity or high toxicity should show in the first 24 hours.

For series [3], the system named is M. javanica. Conditions: tomato root galling; cited from earlier work.
Series [4] relates to Meloidognye hapla. The settings on record: cited from earlier work; for toxicity to nematodes: in vitro; for kill of second stage juveniles: 50 ppm, 24 hours.

Take `COC(=O)CCC(=O)OC` [106-65-0, butanedioic acid, dimethyl ester]: the solubility of preparation result is reported as “soluble” in series [1] (0.1% in water), “just soluble” in series [1] (1.0% in water), “not soluble” in series [1] (3.0% in water) and “not soluble” in series [1] (5.0% in water). Further, the Mortality of larvae is on record as 2 in series [2] (0.1%, 24 hours); 2 in series [2] (1.0%, 24 hours); 1 in series [2] (3.0%, 24 hours); 1 in series [2] (5.0%, 24 hours). In addition, the “toxicity to larvae as judged” value in series [2] is “non-toxic”.

For `COC(=O)CCCCC(=O)OC` [627-93-0, Dimethyl hexanedioate], the solubility of preparation entry in series [1] (0.1% in water) was “soluble”; in series [1] (1.0% in water) it was “not completely soluble”; in series [1] (3.0% in water) it was “not completely soluble”; in series [1] (5.0% in water) it was “not completely soluble”. Moreover, the Mortality of larvae in series [2] (0.1%, 24 hours) worked out at 2; in series [2] (1.0%, 24 hours), 1; in series [2] (3.0%, 24 hours), 2; in series [2] (5.0%, 24 hours), 3. The “toxicity to larvae as judged” value in series [2] was “non-toxic”.

With `COC(=O)CCCC(=O)OC` [1119-40-0, pentanedioic acid, dimethyl ester], the Mortality of larvae in series [2] (0.1%, 48 hours) is listed as 3; in series [2] (0.1%, 72 hours), 3; in series [2] (1.0%, 48 hours), 1; in series [2] (1.0%, 72 hours) it was 2; in series [2] (3.0%, 48 hours), 0; in series [2] (3.0%, 72 hours), 0. For the same compound, the Mortality of larvae came out at 1 in series [2] (5.0%, 48 hours) and 2 in series [2] (5.0%, 72 hours). Also, the “survival of larvae after 30 minutes” value in series [2] (at end of 30 minutes immersion) is “All larvae were alive”.

In the case of `CCCCCCCCC(=O)OC` [Methyl perlargonate], in series [3], the “concentration producing reduced galling of plants” value is 0.8 microliters/liter.

Consider `CCCCCCCC/C=C\CCCCCCCC(=O)O` [Oleic acid], for which, in series [4], the toxicity to nematodes result is recorded as “relatively nontoxic”.

Consider `CCCCCCCCCC(=O)O` [decanoic acid], for which the “kill of second stage juveniles” value in series [4] was “killed all”.

With `CCCCCCCC/C=C\CCCCCCCC(=O)[O-].[K+]` [potassium oleate], the toxicity to nematodes entry in series [4] was “relatively nontoxic”.

As for `CCCCCCCCCCC(=O)O` [undecanoic acid], in series [4], the “kill of second stage juveniles” value is “killed all”.

As to “Polyoxyethylene 10 tridecylether [24938-91-8]”, the Mortality of larvae in series [2] (0.1%, 24 hours) was 0; in series [2] (0.1%, 48 hours), 0; in series [2] (0.1%, 72 hours), 0; in series [2] (1.0%, 24 hours) it was 2; in series [2] (1.0%, 48 hours) it was 2; in series [2] (1.0%, 72 hours) it was 2. Moreover, the Mortality of larvae is on record as 0 in series [2] (3.0%, 24 hours); 0 in series [2] (3.0%, 48 hours); 0 in series [2] (3.0%, 72 hours); 0 in series [2] (5.0%, 24 hours); 3 in series [2] (5.0%, 48 hours); 3 in series [2] (5.0%, 72 hours).

For the compound glycol pelargonate, the “concentration producing reduced galling of plants” value in series [3] is recorded as 6.4 microliters/liter.
